Experimental data taken from patent US20080318925A1 (ASTRAZENECA AB, priority 2007, published 2008).

Target: T1, GABAA2 receptors (α2, β3, γ3 receptor subunits transfected into Sf9 cells) (Homo sapiens, UniProt P47869+Q99928)
T1 construct: host or cells: Sf9 cells (membranes)
T1 sequence (P47869 29-451): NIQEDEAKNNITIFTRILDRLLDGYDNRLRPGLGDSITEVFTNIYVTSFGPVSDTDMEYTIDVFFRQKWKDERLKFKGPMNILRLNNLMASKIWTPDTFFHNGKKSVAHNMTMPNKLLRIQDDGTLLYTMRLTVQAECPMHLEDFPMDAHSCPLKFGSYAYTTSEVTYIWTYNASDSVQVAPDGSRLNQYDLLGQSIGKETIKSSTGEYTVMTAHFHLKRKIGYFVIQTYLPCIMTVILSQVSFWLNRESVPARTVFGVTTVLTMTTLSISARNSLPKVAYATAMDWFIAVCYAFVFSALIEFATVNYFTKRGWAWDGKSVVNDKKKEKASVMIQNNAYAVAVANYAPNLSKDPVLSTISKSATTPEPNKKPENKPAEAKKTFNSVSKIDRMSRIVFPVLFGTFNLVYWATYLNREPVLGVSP
T1 sequence (P28472 26-473 partner): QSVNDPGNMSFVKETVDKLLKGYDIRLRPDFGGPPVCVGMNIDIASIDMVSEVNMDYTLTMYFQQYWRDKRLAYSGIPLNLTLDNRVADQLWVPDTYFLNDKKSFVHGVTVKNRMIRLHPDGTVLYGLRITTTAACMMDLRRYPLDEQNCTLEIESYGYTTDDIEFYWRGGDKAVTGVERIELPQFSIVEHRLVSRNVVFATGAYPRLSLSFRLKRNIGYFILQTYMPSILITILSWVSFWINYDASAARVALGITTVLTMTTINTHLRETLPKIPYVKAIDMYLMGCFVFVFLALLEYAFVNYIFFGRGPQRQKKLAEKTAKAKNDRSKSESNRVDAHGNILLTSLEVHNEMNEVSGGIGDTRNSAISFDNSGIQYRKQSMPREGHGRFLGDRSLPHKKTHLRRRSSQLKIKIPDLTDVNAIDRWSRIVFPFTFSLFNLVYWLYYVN
T1 sequence (Q99928 18-467): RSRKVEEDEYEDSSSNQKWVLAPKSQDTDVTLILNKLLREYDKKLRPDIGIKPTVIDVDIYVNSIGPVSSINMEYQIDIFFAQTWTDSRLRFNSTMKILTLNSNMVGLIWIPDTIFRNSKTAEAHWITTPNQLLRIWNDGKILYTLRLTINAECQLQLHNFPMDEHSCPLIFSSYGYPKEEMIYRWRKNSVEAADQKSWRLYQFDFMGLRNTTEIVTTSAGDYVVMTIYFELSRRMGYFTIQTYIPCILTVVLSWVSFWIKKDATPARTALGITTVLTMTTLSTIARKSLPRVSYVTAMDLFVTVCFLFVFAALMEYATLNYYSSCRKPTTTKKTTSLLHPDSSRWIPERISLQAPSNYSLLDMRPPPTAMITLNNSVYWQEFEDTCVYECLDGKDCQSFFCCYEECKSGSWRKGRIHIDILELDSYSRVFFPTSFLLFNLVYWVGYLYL
Test: GABAA2 binding method ([3H]-flunitrazepam displacement)
Conditions: [3H]-flunitrazepam ~2 nM, Sf9 membranes, 1 hr at 4° C.
Method: In some embodiments, the binding test was directed to a subtype of GABAA receptors, such as GABAA1 receptors (i.e., those containing the α1 subunit), GABAA2 receptors (i.e., those containing the α2 subunit), GABAA3 receptors (i.e., those containing the α3 subunit) and GABAA5 receptors (i.e., those containing the α5 subunit).
• Assay and Wash Buffer: 50 mM Tris-Citrate, 200 mM NaCl, pH 7.8 Compounds at 10 mM in DMSO: Put 75 μl in column 1 of compound plate.
Flumazenil, 10 mM (for NSB)
[^3H]-Flunitrazepam (Cat #NET567): Prepare 10× stock=20 nM, [F} in assay=˜2 nM
1. […] Add 5 ul of 30 uM flumazenil to wells 12 D-E for 50% control wells.
2. Spot 2 μl of compound dilutions into dry plate (Automation Program 3). Manually spot 2 μl 10 mM flumazenil into wells 12 F-H for nonspecific control.
3. Make 1:100 dilution in assay buffer (2 μl into 200 μl) and dispense 25 μl compound into assay plates (Automation Program 4).
4. Dispense 200 μl membranes into assay plate (Automation Program 5).
5. Add 25 μl [^3H]-Flunitrazepam (Automation Program 6). Incubate for 1 hr at 4° C.
6. Collect membranes on a cell harvester onto GF/B filter plates (pre-wet with dH2O and wash 5× 400 μl/well, with cold assay buffer. (First 3 washes are considered hot; last two are cold.)
7. Dry plates for 2-3 hours at RT.
8. Add 40 μl Microscint 40/well (Automation Program 7); seal plates. Count on a TopCount.
Data is analyzed by calculating percent of control, IC50, and Ki in an XLfit template. The following formula is used in the templates: […]

| Ki | Structure (SMILES) |
| --- | --- |
| 0.327 nM | CCCNC(=O)c1nnc2c(-c3cc(Cl)ccc3OC)c(F)ccc2c1N |
| 0.341 nM | CCCNC(=O)c1nnc2c(-c3c(F)cccc3OC)c(F)ccc2c1N |
| 0.552 nM | CCCNC(=O)c1nnc2c(-c3cc(OC)cc(OC)c3)c(F)ccc2c1N |
| 0.558 nM | CCCNC(=O)c1nnc2c(-c3cccc(F)c3F)cccc2c1N |
| 0.565 nM | CCCNC(=O)c1nnc2c(-c3ccc(F)cc3OC)c(F)ccc2c1N |
| 0.6 nM | CCCNC(=O)c1nnc2c(-c3ccc(OC)c(OC)c3OC)c(F)ccc2c1N |
| 0.613 nM | CCCNC(=O)c1nnc2c(-c3ccc(OC)cc3F)c(F)ccc2c1N |
| 2.42 nM | CCCNC(=O)c1nnc2c(-c3ccc(OC)cc3C(F)(F)F)cccc2c1N |
| 2.5 nM | CCCNC(=O)c1nnc2c(-c3ccc(OC)cc3OC)cccc2c1N |
| 2.69 nM | CCCNC(=O)c1nnc2c(-c3ccc(OC)cc3OC)c(C#N)ccc2c1N |
| 2.88 nM | CCCNC(=O)c1nnc2c(-c3ccc(OC)c(F)c3)c(F)ccc2c1N |
| 3.41 nM | CCCNC(=O)c1nnc2c(-c3cccc(OC)c3F)cccc2c1N |
| 3.88 nM | CCCNC(=O)c1nnc2c(-c3ccc(OC)c(OC)c3)cccc2c1N |
| 4.11 nM | CCCNC(=O)c1nnc2c(-c3ccc(C)nc3)cccc2c1N |
| 4.17 nM | CCCNC(=O)c1nnc2c(-c3ccc(OC)cc3F)cccc2c1N |
| 4.34 nM | CCCNC(=O)c1nnc2c(-c3cccc(OC)c3)cccc2c1N |
| 4.34 nM | CCCNC(=O)c1nnc2c(-c3ccc(F)cc3OC)cccc2c1N |
| 5.56 nM | CCCNC(=O)c1nnc2c(-c3cc(F)ccc3C)cccc2c1N |
| 5.71 nM | CCCNC(=O)c1nnc2c(-c3ccc(OC)cc3OC)c(Cl)ccc2c1N |
| 5.78 nM | CCCNC(=O)c1nnc2c(-c3cc(F)cc(F)c3OC)c(F)ccc2c1N |
| 5.82 nM | CCCNC(=O)c1nnc2c(-c3ccccc3)c(Cl)ccc2c1N |
| 6.75 nM | CCCNC(=O)c1nnc2c(-c3ccc(OC)c(OC)c3OC)cccc2c1N |
| 7.51 nM | CCCNC(=O)c1nnc2c(-c3nc(Br)ccc3OC)cccc2c1N |
| 8.72 nM | CCCNC(=O)c1nnc2c(-c3ccc(Cl)cc3)c(F)ccc2c1N |

| Ki | Structure (SMILES) |
| --- | --- |
| 9.58 nM | CCCNC(=O)c1nnc2c(-c3ccc(F)cc3)cccc2c1N |
| 10.5 nM | CCCNC(=O)c1nnc2c(-c3cc(F)ccc3OC)cccc2c1N |
| 10.5 nM | CCNC(=O)c1nnc2c(-c3cc(C)ccc3OC)cccc2c1N |
| 10.9 nM | CCCNC(=O)c1nnc2c(-c3cccc(F)c3OC)cccc2c1N |
| 11.2 nM | CCCNC(=O)c1nnc2c(-c3cc(C)ccc3C)c(Cl)ccc2c1N |
| 12.3 nM | CCCNC(=O)c1nnc2c(-c3cccc(Cl)c3)cccc2c1N |
| 13.3 nM | CCCCNC(=O)c1nnc2c(-c3cc(C)ccc3OC)cccc2c1N |
| 13.9 nM | CCCNC(=O)c1nnc2c(-c3cc(OC)ccc3OC)c(Cl)ccc2c1N |
| 15.4 nM | CCCNC(=O)c1nnc2c(-c3ccc(OC)cc3)cccc2c1N |
| 16.1 nM | CCCNC(=O)c1nnc2c(-c3cc(Cl)cc(Cl)c3)c(F)ccc2c1N |
| 16.8 nM | CCCNC(=O)c1nnc2c(-c3ccc(C)c(C)c3)cccc2c1N |
| 17.6 nM | CCCNC(=O)c1nnc2c(-c3ccc(OC)c(C)c3)cccc2c1N |
| 20 nM | CCCNC(=O)c1nnc2c(-c3ccc(F)c(F)c3)cccc2c1N |
| 20.2 nM | CCCNC(=O)c1nnc2c(-c3ccc(OC)c(F)c3)cccc2c1N |
| 22 nM | CCCNC(=O)c1nnc2c(-c3cc(Cl)cc(Cl)c3)cccc2c1N |
| 22.1 nM | CCCNC(=O)c1nnc2c(-c3cnc(OC)c(F)c3)cccc2c1N |
| 25.4 nM | CCCNC(=O)c1nnc2c(-c3cnc(OC)c(Cl)c3)cccc2c1N |
| 29 nM | CCCNC(=O)c1nnc2c(-c3ccc(C)cc3)cccc2c1N |
| 35.8 nM | CCCNC(=O)c1nnc2c(-c3cc(C)c(OC)c(C)c3)cccc2c1N |
| 37.2 nM | CCCNC(=O)c1nnc2c(-c3ccc(Cl)cc3)cccc2c1N |
| 45.8 nM | CCCNC(=O)c1nnc2c(-c3cc(F)ccc3F)c(F)ccc2c1N |
| 56.5 nM | CCCNC(=O)c1nnc2c(-c3cc(OC)c(OC)c(OC)c3)cccc2c1N |
| 91.4 nM | CCCNC(=O)c1nnc2c(-c3ccccc3)c(OC)ccc2c1N |
| 624 nM | CCCNC(=O)c1nnc2c(-c3c(OC)cccc3OC)cccc2c1N |

Second part, the molecule before the results:

| Structure (SMILES) | Ki |
| --- | --- |
| CCCNC(=O)c1nnc2c(-c3ccccc3C(F)(F)F)cccc2c1N | 0.364 nM |
| CCCNC(=O)c1nnc2c(-c3ccc(OC)nc3OC)cccc2c1N | 0.56 nM |
| CCCNC(=O)c1nnc2c(-c3cncc(C(=O)N4CCC4)c3)cccc2c1N | 2.34 nM |
| CCCNC(=O)c1nnc2c(-c3cccnc3)cccc2c1N | 2.6 nM |
| CCCNC(=O)c1nnc2c(-c3cnc(OC)nc3OC)c(Cl)ccc2c1N | 2.73 nM |
| CCCNC(=O)c1nnc2c(-c3cc(C)ccc3OC)c(Cl)ccc2c1N | 2.89 nM |
| CCCNC(=O)c1nnc2c(-c3cccc(C(=O)N4CCC4)c3)cccc2c1N | 3.44 nM |
| CCCNC(=O)c1nnc2c(-c3cncc(OC)c3)cccc2c1N | 4.21 nM |
| CCNC(=O)c1nnc2c(-c3cnccc3OC)cccc2c1N | 4.36 nM |
| CCCNC(=O)c1nnc2c(-c3cc(OC)cc(OC)c3)cccc2c1N | 5 nM |
| CCCNC(=O)c1nnc2c(-c3cccc(S(C)(=O)=O)c3)cccc2c1N | 10.4 nM |
| CCCNC(=O)c1nnc2c(-c3cnc4ccccc4c3)cccc2c1N | 12.3 nM |
| CCNC(=O)c1nnc2c(-c3cnc(OC)nc3OC)cccc2c1N | 14.4 nM |
| COc1ccc(C)cc1-c1cccc2c(N)c(C(=O)NC3CC3)nnc12 | 15.2 nM |
| CCCNC(=O)c1nnc2c(-c3cc(C(=O)N4CCC4)ccc3OC)cccc2c1N | 18.4 nM |
| CCCNC(=O)c1nnc2c(-c3ccsc3)cccc2c1N | 18.6 nM |

| Structure (SMILES) | Ki |
| --- | --- |
| Nc1c(C(=O)NCC2CC2)nnc2c(-c3ccccc3)cccc12 | 18.6 nM |
| CCCNC(=O)c1nnc2c(-c3ccccn3)cccc2c1N | 19.4 nM |
| CCCNC(=O)c1nnc2c(-c3cnc(OC)nc3)cccc2c1N | 19.5 nM |
| CCCNC(=O)c1nnc2c(-c3cnccn3)cccc2c1N | 20.4 nM |
| CCCNC(=O)c1nnc2c(-c3ccc(N(C)C)cc3)cccc2c1N | 26.6 nM |
| CCCNC(=O)c1nnc2c(-c3ccc4[nH]ccc4c3)cccc2c1N | 35 nM |
| CNC(=O)c1nnc2c(-c3cc(C)ccc3OC)cccc2c1N | 35.8 nM |
| CCCNC(=O)c1nnc2c(-c3ccc4ccccc4c3)cccc2c1N | 43.3 nM |
| CCCNC(=O)c1nnc2c(-c3cccc(OC(F)(F)F)c3)cccc2c1N | 47.8 nM |
| CCCNC(=O)c1nnc2c(-c3cccc(C(=O)O)c3)cccc2c1N | 53.8 nM |
| CCCNC(=O)c1nnc2c(-c3cc(C(F)(F)F)cc(C(F)(F)F)c3)cccc2c1N | 356 nM |
| CNC(=O)c1nnc2c(-c3cnc(OC)nc3OC)cccc2c1N | 514 nM |
| CCNC(=O)c1nnc2c(-c3cnc(OC)c(F)c3)cccc2c1N | 9 nM |
| COc1ccc(F)cc1-c1cccc2c(N)c(C(=O)NC3CC3)nnc12 | 8.22 nM |
| COc1ccncc1-c1cccc2c(N)c(C(=O)NC3CC3)nnc12 | 0.785 nM |
| COc1ncccc1-c1cccc2c(N)c(C(=O)NC3CC3)nnc12 | 0.501 nM |
